Experimental data: ChEMBL document CHEMBL1139700 (Bioorg Med Chem Lett, 2006)

Assays:
[1] = molecular target: Neuronal acetylcholine receptor; alpha4/beta2 (Rattus norvegicus, UniProt P09483+P12390); experiment: Displacement of [3H]epibatidine from alpha-4-beta-2 nAChR in rat brain cortex membrane; assay type: cell membranes
[2] = molecular target: Neuronal acetylcholine receptor subunit alpha-7 (Rattus norvegicus, UniProt Q05941); experiment: Displacement of [3H]alpha-Bungarotoxin from alpha-7 nAChR in rat brain cortex membranes; assay type: cell membranes, Membrane
Sequence of Neuronal acetylcholine receptor subunit alpha-7 (Q05941 whole entry): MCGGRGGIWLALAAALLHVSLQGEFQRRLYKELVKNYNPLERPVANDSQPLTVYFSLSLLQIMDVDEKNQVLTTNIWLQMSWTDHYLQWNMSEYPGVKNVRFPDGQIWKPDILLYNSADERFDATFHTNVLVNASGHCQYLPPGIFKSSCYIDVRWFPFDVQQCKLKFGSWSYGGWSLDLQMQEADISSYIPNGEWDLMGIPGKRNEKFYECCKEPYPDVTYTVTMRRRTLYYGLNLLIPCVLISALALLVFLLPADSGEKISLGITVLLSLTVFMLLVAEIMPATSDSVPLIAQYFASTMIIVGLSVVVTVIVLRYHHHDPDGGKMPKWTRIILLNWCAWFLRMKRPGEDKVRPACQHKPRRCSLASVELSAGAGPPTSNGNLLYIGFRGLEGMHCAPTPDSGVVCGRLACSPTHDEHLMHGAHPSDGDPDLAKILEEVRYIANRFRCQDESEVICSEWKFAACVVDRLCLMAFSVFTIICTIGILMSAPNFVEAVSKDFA

[3] = molecular target: T1, Adrenergic receptor alpha-2 (Rattus norvegicus, UniProt P22086+P19328+P22909); experiment: Displacement of [3H]RS 79948-197 from rat cortex adrenergic alpha-2 receptor
T1 sequence (P22086 whole entry): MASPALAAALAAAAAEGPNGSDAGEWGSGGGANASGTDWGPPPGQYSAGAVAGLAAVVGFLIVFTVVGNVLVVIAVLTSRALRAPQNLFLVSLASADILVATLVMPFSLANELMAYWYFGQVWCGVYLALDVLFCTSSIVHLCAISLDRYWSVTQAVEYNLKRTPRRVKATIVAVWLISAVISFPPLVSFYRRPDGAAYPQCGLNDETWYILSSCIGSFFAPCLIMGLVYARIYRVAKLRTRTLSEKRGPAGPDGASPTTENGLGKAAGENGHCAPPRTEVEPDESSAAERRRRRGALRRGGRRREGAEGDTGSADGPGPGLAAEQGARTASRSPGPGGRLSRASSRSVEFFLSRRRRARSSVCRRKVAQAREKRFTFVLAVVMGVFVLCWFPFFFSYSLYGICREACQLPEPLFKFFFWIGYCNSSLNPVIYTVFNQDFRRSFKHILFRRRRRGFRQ
T1 sequence (P19328 whole entry): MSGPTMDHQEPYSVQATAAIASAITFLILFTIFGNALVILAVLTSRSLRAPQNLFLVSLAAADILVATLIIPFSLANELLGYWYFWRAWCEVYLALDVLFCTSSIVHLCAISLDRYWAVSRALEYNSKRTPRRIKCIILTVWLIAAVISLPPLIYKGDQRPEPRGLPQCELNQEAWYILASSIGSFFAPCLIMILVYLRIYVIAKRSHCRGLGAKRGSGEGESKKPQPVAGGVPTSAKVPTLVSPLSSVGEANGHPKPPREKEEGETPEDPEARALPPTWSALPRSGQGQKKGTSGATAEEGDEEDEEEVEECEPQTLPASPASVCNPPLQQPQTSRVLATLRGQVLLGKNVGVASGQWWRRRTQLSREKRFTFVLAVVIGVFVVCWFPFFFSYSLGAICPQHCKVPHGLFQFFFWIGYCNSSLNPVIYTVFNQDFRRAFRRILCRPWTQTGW
T1 sequence (P22909 whole entry): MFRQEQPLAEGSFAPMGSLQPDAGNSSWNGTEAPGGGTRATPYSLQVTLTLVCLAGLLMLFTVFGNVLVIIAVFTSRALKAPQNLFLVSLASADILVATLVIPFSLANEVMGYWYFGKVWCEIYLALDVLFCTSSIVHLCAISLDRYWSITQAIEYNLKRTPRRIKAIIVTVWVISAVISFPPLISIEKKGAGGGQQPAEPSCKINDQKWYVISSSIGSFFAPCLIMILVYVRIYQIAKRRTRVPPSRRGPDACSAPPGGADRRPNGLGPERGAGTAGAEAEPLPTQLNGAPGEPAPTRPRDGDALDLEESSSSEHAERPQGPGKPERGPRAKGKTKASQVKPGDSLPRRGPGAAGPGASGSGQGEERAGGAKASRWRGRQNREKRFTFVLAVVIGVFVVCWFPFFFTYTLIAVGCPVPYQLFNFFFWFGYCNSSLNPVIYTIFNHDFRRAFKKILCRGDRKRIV

Sequence of Neuronal acetylcholine receptor; alpha4/beta2 (P09483 whole entry): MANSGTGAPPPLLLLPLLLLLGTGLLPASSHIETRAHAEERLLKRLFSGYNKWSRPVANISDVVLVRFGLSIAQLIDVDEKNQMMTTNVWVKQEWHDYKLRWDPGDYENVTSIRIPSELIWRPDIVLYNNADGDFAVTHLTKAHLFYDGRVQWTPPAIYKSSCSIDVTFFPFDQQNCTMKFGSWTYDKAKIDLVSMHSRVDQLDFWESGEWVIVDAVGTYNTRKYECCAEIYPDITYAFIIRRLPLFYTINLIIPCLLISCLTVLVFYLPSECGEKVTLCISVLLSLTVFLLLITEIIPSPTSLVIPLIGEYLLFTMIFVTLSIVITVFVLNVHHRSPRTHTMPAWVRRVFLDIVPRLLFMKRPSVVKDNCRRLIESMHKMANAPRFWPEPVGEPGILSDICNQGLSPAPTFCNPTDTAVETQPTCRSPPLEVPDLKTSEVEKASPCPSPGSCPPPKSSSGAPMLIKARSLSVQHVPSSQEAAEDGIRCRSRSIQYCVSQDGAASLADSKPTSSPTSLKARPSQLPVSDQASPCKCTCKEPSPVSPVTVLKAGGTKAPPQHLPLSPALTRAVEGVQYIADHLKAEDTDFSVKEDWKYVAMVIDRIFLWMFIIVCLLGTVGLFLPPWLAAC
Sequence of Neuronal acetylcholine receptor; alpha4/beta2 (P12390 whole entry): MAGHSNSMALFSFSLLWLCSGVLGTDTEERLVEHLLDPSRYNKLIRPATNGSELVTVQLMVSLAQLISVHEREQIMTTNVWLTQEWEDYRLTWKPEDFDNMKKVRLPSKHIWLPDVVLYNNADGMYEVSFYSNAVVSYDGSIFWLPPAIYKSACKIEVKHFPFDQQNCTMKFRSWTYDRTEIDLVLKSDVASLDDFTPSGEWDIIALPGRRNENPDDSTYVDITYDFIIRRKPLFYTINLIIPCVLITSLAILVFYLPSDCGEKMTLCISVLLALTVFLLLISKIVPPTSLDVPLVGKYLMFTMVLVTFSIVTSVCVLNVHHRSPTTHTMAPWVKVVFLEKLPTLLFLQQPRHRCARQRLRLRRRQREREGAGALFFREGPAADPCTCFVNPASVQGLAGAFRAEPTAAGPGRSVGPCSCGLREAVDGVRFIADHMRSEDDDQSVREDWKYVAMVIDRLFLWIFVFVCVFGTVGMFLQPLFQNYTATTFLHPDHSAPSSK

## CN1CCC[C@H]1[C@H]1CNC(=O)O1
[1]
  Ki: 62 µM
[2]
  Ki: 117 µM

## CN1CCC[C@@H]1[C@@H]1CNC(=O)O1
[1]
  Ki: 80 µM
[2]
  Ki: 338 µM

## CN1CCC[C@H]1[C@@H]1COc2ccccc2O1.Cl
[1]
  Ki: 0.62 µM
[3]
  Ki: 0.77 µM
[2]
  Ki: 12 µM

## CN1CCC[C@@H]1[C@H]1COc2ccccc2O1.Cl
[1]
  Ki: 2.57 µM
[3]
  Ki: 0.47 µM
[2]
  Ki: 45 µM
